Publication PMC13198257, “An aerosolized dual-action autotaxin inhibitor-PPARγ agonist for the treatment of pulmonary fibrosis” (Cell Reports Medicine, 2026)

Test system: lung gene expression
Test: RNA sequencing of lung tissue (BLM/EL244 vs BLM)
Format: in vivo, mouse
Settings: lung tissue, BLM/EL244 vs BLM
Description: RNA quality was assessed using an Agilent TapeStation 4150 with the High Sensitivity […] ScreenTape (Agilent), according to the manufacturer’s protocols. For library preparation, the QuantSeq 3’mRNA-Seq Library Prep Kit (Lexogen) was used according to manufacturer’s instructions. Briefly, 500 ng of RNA from each sample was used for first-strand synthesis, followed by RNA template removal, and second-strand synthesis initiated by random primers. In-line barcodes were introduced at this step, and this was followed by magnetic bead-based purification. The resulting libraries were amplified for 15 cycles and re-purified, with quantity and quality assessed on a Qubit 4 Fluorometer with the Invitrogen Qubit dsDNA HS Assay and an Agilent Tapestation 4150 with the High Sensitivity D1000 assay kit, respectively. The quantified libraries were pooled equimolarly; 50ng of total library mix was used for Adapter Conversion PCR Amplification using the Universal Library Conversion Kit (App-A), Version: V1.0 (MGI Tech Co., Ltd.), according to the manufacturer’s instructions.
The quantity and quality of the purified adapter conversion PCR (AC-PCR) product were evaluated on a Qubit 4 Fluorometer with the Invitrogen Qubit dsDNA HS Assay and on an Agilent Tapestation 4150 with the High Sensitivity D1000 assay kit, respectively. This was followed by DNA denaturation, Single-Strand Circularisation, Enzymatic Digestion, Enzymatic Digestion Product Cleanup and Quality Control steps on 1 pmol of AC-PCR product, according to the Universal Library Conversion Kit (App-A) User Manual (Version: A3).
Finally, 60 fmol of ssCirDNA were used for DNB preparation and sequencing on a DNBSEQ-G400 platform at the BSRC Alexander Fleming Genomics Facility, using a G400 App-A FCS SE100 High-throughput Sequencing Set (MGI Tech Co., Ltd.), according to the manufacturer’s instructions.
Alignment of the FASTQ files was performed against the mouse genome build mm10 using a custom Bash script.[143] Read counting on the 3′ UTRs and differential expression analysis were conducted using the metaseqR2 bioconductor package.[144] Genes corresponding to the following biotypes were excluded: polymorphic_pseudogene, processed_transcript, pseudogene, IG_V_pseudogene, misc_RNA, IG_C_gene, IG_J_gene, IG_D_gene, IG_LV_gene, TR_V_gene, TR_V_pseudogene, TEC, and processed_pseudogene. Gene counts were normalized with DESEQ[145] through metaseqR2. Genes with more than 10 counts in at least 50% of the samples were kept for further processing. For differential expression analysis, the PANDORA algorithm[146] was used to estimate a meta p-value integrating the results from the DESEQ, DESEQ2,[147] edgeR,[148] limma,[149] NBPSeq,[150] and NOISeq[151] algorithms. All additional parameters were set to default values.
Pathway enrichment analysis was performed for the Gene Ontology Biological process (BP) and Molecular Function (MF) terms through GeneCodis 4.[152] The volcano plots, scatterplots, Venn diagrams, and dot plots were generated using the ggplot2 Bioconductor package.

Q: Which results are given for `O=C1NC(=O)C(Cc2ccc(OCCC3CCN(C(=O)OCc4cc(Cl)cc(Cl)c4)CC3)cc2)S1` (centres unmarked) [EL244, 3,5-dichlorobenzyl 4-(2-(4-((2,4-dioxothiazolidin-5-yl)methyl)phenoxy)ethyl)piperidine-1-carboxylate]?
A: log2 nFC Hells: -1.30; log2 nFC Il18bp: -0.95; log2 nFC Ildr2: -1.32; log2 nFC Itm2a: -1.25; log2 nFC Kcnn4: -1.27; log2 nFC Kdelr3: -1.25; log2 nFC Kif23: -1.20; log2 nFC Klhdc8a: -1.02; log2 nFC Kntc1: -1.39; log2 nFC Lair1: -0.92; log2 nFC Lat2: -1.10; log2 nFC Lcn2: -0.95; log2 nFC Lgals1: -1.12; log2 nFC Lgmn: -1.09; log2 nFC Lilrb4a: -0.89; log2 nFC Lmnb1: -0.91; log2 nFC Loxl2: -0.91; log2 nFC Lrg1: -0.89; log2 nFC Lum: -1.32; log2 nFC Mad2l1: -0.97; log2 nFC Mafb: -0.92; log2 nFC Mark1: -1.23; log2 nFC Mcm5: -1.33; log2 nFC Mdk: -1.34; log2 nFC Mfap5: -1.12; log2 nFC Mfrp: -0.87; log2 nFC Mgp: -1.03; log2 nFC Mir692-1: -1.18; log2 nFC Mmp14: -1.31; log2 nFC Ms4a6c: -0.91; log2 nFC Ms4a6d: -0.93; log2 nFC Ncapd2: -1.29; log2 nFC Ndnf: -0.87; log2 nFC Nnat: -1.34; log2 nFC Nrcam: -1.26; log2 nFC Nrep: -1.26; log2 nFC P2ry6: -0.93; log2 nFC Paox: -0.92; log2 nFC Pcdh7: -1.03; log2 nFC Pdlim4: -1.24; log2 nFC Plk4: -1.31; log2 nFC Polh: -0.87; log2 nFC Ppic: -1.10; log2 nFC Prdx4: -0.94; log2 nFC Psat1: -0.98; log2 nFC Psrc1: -1.26; log2 nFC Pth1r: -1.40; log2 nFC Racgap1: -1.21; log2 nFC Rcc1: -0.92; log2 nFC Rgs4: -1.23; log2 nFC Rgs5: -1.00; log2 nFC Rhof: -1.02; log2 nFC S100a4: -1.26; log2 nFC S100a14: -1.28; log2 nFC Scn3b: -0.91; log2 nFC Serpina3g: -1.31; log2 nFC Serpina3n: -1.22; log2 nFC Serpine1: -0.98; log2 nFC Serpine2: -0.87; log2 nFC Serpinh1: -0.87; log2 nFC Sertad4: -1.35; log2 nFC Sfn: -1.19; log2 nFC Sh2b2: -1.23; log2 nFC Slamf8: -1.24; log2 nFC Smc2: -0.98; log2 nFC Snai1: -0.97; log2 nFC Spc24: -1.13; log2 nFC St8sia6: -1.04; log2 nFC Tacc3: -1.27; log2 nFC Tiam1: -1.04; log2 nFC Tlr2: -1.04; log2 nFC Tnfaip8l1: -1.08; log2 nFC Tnfrsf11a: -1.12; log2 nFC Tns4: -1.20; log2 nFC Traf4: -1.10; log2 nFC Tubb2b: -1.19; log2 nFC Tyms: -1.02; log2 nFC Ulbp1: -1.06; log2 nFC Vcan: -1.21; log2 nFC Wfdc17: -1.30; nFC 1500009L16Rik: 0.43; nFC 2200002D01Rik: 0.54; nFC AA467197: 0.38; nFC Adamts2: 0.50; nFC Areg: 0.49; nFC Arhgap11a: 0.46; nFC Armcx4: 0.40; nFC Asf1b: 0.45; nFC Bcl2a1b: 0.45; nFC Bcl2a1d: 0.41; nFC Bub1b: 0.44; nFC C1qtnf5: 0.55; nFC C1qtnf6: 0.38; nFC Ccdc8: 0.46; nFC Ccl9: 0.39; nFC Ccl17: 0.52; nFC Cd68: 0.50; nFC Cd72: 0.50; nFC Cd248: 0.42; nFC Cd300c2: 0.54; nFC Cdca2: 0.40; nFC Cenpa: 0.40; nFC Cenpw: 0.40; nFC Cercam: 0.39; nFC Ch25h: 0.53; nFC Cilp: 0.38; nFC Clcn5: 0.53; nFC Clec4a2: 0.42; nFC Clec4n: 0.38; nFC Clec5a: 0.45; nFC Clec11a: 0.50; nFC Clec12a: 0.53; nFC Col1a2: 0.38; nFC Col8a1: 0.44; nFC Col12a1: 0.54; nFC Col15a1: 0.47; nFC Col16a1: 0.53; nFC Cotl1: 0.54; nFC Csf2rb2: 0.50; nFC Cstb: 0.52; nFC Ctsk: 0.51; nFC Ctss: 0.53; nFC Cx3cr1: 0.44; nFC Cyp7b1: 0.38; nFC Dbn1: 0.54; nFC Dclk1: 0.55; nFC Diaph3: 0.46; nFC Dio2: 0.38; nFC Dok2: 0.39; nFC Dut: 0.54; nFC Egr2: 0.54; nFC Epha4: 0.54; nFC F10: 0.46; nFC Fam20c: 0.48; nFC Fbn1: 0.49; nFC Fcgr1: 0.41; nFC Fcgr2b: 0.47; nFC Fcrls: 0.39; nFC Fen1: 0.50; nFC Fgf13: 0.38; nFC Fkbp10: 0.42; nFC Fndc1: 0.46; nFC Fscn1: 0.43; nFC Fst: 0.48; nFC Fstl1: 0.43; nFC Gas2l3: 0.40; nFC Gm13889: 0.55; nFC Gm25380: 0.50; nFC Gm42674: 0.44; nFC Gm49339: 0.52; nFC Hells: 0.41; nFC Il18bp: 0.52; nFC Ildr2: 0.40; nFC Itm2a: 0.42; nFC Kcnn4: 0.41; nFC Kdelr3: 0.42; nFC Kif23: 0.44; nFC Klhdc8a: 0.49; nFC Kntc1: 0.38; nFC Lair1: 0.53; nFC Lat2: 0.47; nFC Lcn2: 0.52; nFC Lgals1: 0.46; nFC Lgmn: 0.47; nFC Lilrb4a: 0.54; nFC Lmnb1: 0.53; nFC Loxl2: 0.53; nFC Lrg1: 0.54; nFC Lum: 0.40; nFC Mad2l1: 0.51; nFC Mafb: 0.53; nFC Mark1: 0.42; nFC Mcm5: 0.40; nFC Mdk: 0.40; nFC Mfap5: 0.46; nFC Mfrp: 0.55; nFC Mgp: 0.49; nFC Mir692-1: 0.44; nFC Mmp14: 0.40; nFC Ms4a6c: 0.53; nFC Ms4a6d: 0.53; nFC Ncapd2: 0.41; nFC Ndnf: 0.55; nFC Nnat: 0.40; nFC Nrcam: 0.42; nFC Nrep: 0.42; nFC P2ry6: 0.52; nFC Paox: 0.53; nFC Pcdh7: 0.49; nFC Pdlim4: 0.42; nFC Plk4: 0.40; nFC Polh: 0.55; nFC Ppic: 0.47; nFC Prdx4: 0.52; nFC Psat1: 0.51; nFC Psrc1: 0.42; nFC Pth1r: 0.38; nFC Racgap1: 0.43; nFC Rcc1: 0.53; nFC Rgs4: 0.42; nFC Rgs5: 0.50; nFC Rhof: 0.49; nFC S100a4: 0.42; nFC S100a14: 0.41; nFC Scn3b: 0.53; nFC Serpina3g: 0.40; nFC Serpina3n: 0.43; nFC Serpine1: 0.51; nFC Serpine2: 0.55; nFC Serpinh1: 0.55; nFC Sertad4: 0.39; nFC Sfn: 0.44; nFC Sh2b2: 0.43; nFC Slamf8: 0.42; nFC Smc2: 0.51; nFC Snai1: 0.51; nFC Spc24: 0.46; nFC St8sia6: 0.49; nFC Tacc3: 0.42; nFC Tiam1: 0.49; nFC Tlr2: 0.48; nFC Tnfaip8l1: 0.47; nFC Tnfrsf11a: 0.46; nFC Tns4: 0.44; nFC Traf4: 0.47; nFC Tubb2b: 0.44; nFC Tyms: 0.49; nFC Ulbp1: 0.48; nFC Vcan: 0.43; nFC Wfdc17: 0.41
